# Measured values: ChEMBL document CHEMBL1135133, “Scaffold hopping and optimization towards libraries of glycogen synthase kinase-3 inhibitors” (Bioorg Med Chem Lett, 2002)
# Molecular target: Glycogen synthase kinase-3 beta (Homo sapiens, UniProt P49841)
# Assay: Inhibitory concentration against human Glycogen synthase kinase-3
# Glycogen synthase kinase-3 beta, sequence (P49841 whole entry): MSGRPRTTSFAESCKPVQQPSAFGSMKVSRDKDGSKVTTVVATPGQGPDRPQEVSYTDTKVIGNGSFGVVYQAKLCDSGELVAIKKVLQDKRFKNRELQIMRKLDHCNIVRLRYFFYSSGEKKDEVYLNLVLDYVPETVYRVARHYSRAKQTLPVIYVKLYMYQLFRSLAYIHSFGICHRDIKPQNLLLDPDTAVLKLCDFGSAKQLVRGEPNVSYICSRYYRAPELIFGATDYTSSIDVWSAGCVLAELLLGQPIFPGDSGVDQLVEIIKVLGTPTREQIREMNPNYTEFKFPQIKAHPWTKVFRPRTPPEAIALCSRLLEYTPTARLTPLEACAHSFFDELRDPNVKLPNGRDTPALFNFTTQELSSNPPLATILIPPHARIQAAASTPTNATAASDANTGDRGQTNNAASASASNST
row,IC50 [µM],SMILES
1,235,O=C(O)c1cccc(CSc2nnc(-c3ccncc3)o2)c1
2,11,O=C(O)Cc1ccc(CSc2nnc(-c3ccncc3)s2)cc1
3,29,O=C(O)c1ccc(CSc2nnc(-c3ccncc3)o2)cc1
4,1.2,O=C(Cc1ccc(CSc2nnc(-c3ccncc3)o2)cc1)NCCc1ccccc1F
5,198,Ic1ccc(CSc2nnc(-c3ccncc3)o2)cc1
6,1.1,COC(=O)c1cccc(CSc2nnc(-c3ccncc3)o2)c1
7,1.4,Fc1cccc(CSc2nnc(-c3ccncc3)o2)c1
8,> 250,Cc1nc(-c2cccc(CSc3nnc(-c4ccncc4)o3)c2)no1
9,> 250,O=C(O)Cc1ccc(CSc2nnc(-c3ccccn3)s2)cc1
10,> 250,O=C(O)Cc1ccc(CSc2nnc(-c3cccnc3)s2)cc1
11,12,Clc1ccccc1CSc1nnc(-c2ccncc2)o1
12,0.82,Clc1cccc(CSc2nnc(-c3ccncc3)o2)c1
13,29,c1ccc(CCSc2nnc(-c3ccncc3)o2)cc1
14,6.7,c1ccc(CSc2nnc(-c3ccncc3)o2)cc1
15,> 250,O=C(O)Cc1ccc(CSc2n[nH]c(-c3ccncc3)n2)cc1
16,8,O=C(O)Cc1ccc(CSc2nnc(-c3ccncc3)o2)cc1
